Assay results: PMC11249626, “Fluorophore-Labeled Pyrrolones Targeting the Intracellular Allosteric Binding Site of the Chemokine Receptor CCR1” (ACS Pharmacology & Translational Science, 2024)

Biological target: T1, CXCR1 (Homo sapiens, UniProt P25024)
T1 construct: host or cells: HEK293T, transient
T1 sequence (P25024 1-350): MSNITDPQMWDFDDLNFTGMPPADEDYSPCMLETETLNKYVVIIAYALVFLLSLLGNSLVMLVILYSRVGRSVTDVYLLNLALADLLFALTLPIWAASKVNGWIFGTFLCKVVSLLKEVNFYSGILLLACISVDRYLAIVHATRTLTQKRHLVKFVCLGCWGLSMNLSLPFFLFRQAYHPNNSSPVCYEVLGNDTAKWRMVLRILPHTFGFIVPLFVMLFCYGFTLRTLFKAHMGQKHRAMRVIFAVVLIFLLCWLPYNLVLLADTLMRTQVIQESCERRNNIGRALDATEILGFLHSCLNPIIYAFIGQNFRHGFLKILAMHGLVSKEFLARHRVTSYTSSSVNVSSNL
Experiment: Membrane-based NanoBRET saturation binding assay, CXCR1_Nluc membranes
Protocol: Emission spectra of Nluc -labeled CCR1 (CCR1_Nluc) protein: The emission spectra of CCR1_Nluc has already been reported by Toy et al.1 For a confirmation of the reported data with new CCR1_Nluc membrane batches, furimazine (Promega, Mannheim, Germany 1:2000) was added to the membrane preparations (2 µg protein/well). […]
NanoBRET binding assays: Membrane-based NanoBRET saturation assay: For the establishment of our NanoBRET binding assay, we referred to recently published protocols. […]
Then, 20 µL of the membrane preparations diluted in assay buffer (3 µg total protein/well) were added and the plates were incubated for 90 min at 37 °C. Subsequently, 5 µL of a furimazine solution (Promega, Mannheim, Germany, final assay dilution: 1:5,000) were added to each well (final assay volume: 35 µL) before measuring luminescence with a CLARIOstar microplate reader using 620/10 nm and 475/30 nm emission filters after 5 min of incubation in the dark. Bioluminescence resonance energy transfer (BRET) was determined as the ratio of acceptor fluorescence and donor luminescence. […] Specific binding signals were calculated as a difference of total and non-specific binding. If required, netBRET values were calculated as the difference between total BRET values and the values obtained in the absence of a fluorescent ligand. […]

- Kd: 12.3 ± 0.3 µM
Compound: CN(C)c1ccc2c(-c3cc(C(=O)NCCOCCOCc4cn(CCCC(=O)C5=C(O)C(=O)N(c6ccc(Br)cc6F)C5C5CCCCC5)nn4)ccc3C(=O)[O-])c3ccc(=[N+](C)C)cc-3oc2c1 (stereo not shown) [compound 12]
